In US8263563B2, “Furin inhibitors” (priority 2004, dated 2012):
Ends that are not written are not given here. * marks the point of attachment. Decanoyl = CCCCCCCCCC(=O)*; OPH = not defined here; CH2Cl = ClC*

Tested on: lung epethalial and macrophage cells exposed to anthrax toxin (PA and FP59)
Format: cell-based

Substance | Protein Synthesis Inferred From ^35S incorporation [%]
decanoyl RVKR-CMK (Decanoyl-RVKR-CH2Cl) | 86.9 ± 9.9
PGluArgValArgArgOPH (PERVRR-{OPH}; not fully specified (some residues); printed as PGluArgValArgArgOPH; reading uncertain) [ERVRR-OPH] | 70.9 ± 8.7
